Test results from patent US20200060276A1, “THIAZOLE COMPOUND AND HERBICIDE” (OAT Agrio Co., Ltd., priority 2017, published 2020).

Columns and labels:
Type in all cases: in vivo
[1] = tested on: Cyperus microiria; experiment: Test for Herbicidal Effect in Flooding Treatment (#1), CYMIC; conditions: flooding treatment at seeding, dose 2 kg/ha, visual observation on day 21
Method: (#1) Test for Herbicidal Effect in Flooding Treatment: Styrol cups each having an opening diameter of 8 cm (about 52 cm^2) were respectively filled with soil (45 ml) which had been passed through a sieve (2 mm). Water (about 115 ml) was mixed with the soil such that the soil was flooded. After the soil stood still for 24 hours, Monochoria vaginalis, Echinochloa crus-galli (L.) P. Beauv. var. formosensis Ohwi, Cyperus difformis (umbrella sedge), and Scirpus juncoides were seeded. Each of the compounds of the present invention was dissolved in acetone, and the obtained product was then diluted with water containing Tween 80®. Each of the resultant chemical solutions was dropped on the entire surface of an associated one of treatment sections, so that each section was treated with 1 ml of the respective chemical solution (a dose of 2 kg/ha). After the treatment, the plants were grown in a glasshouse. On day 21, a survey was conducted on the herbicidal activity by visual observation, and evaluation was made according to the following criteria. 0: Growth inhibition effect is less than 10%. 1: Growth inhibition effect is equal to or greater than 10%, and less than 30%. 2; Growth inhibition effect is equal to or greater than 30%, and less than 50%. 3: Growth inhibition effect equal to or greater than 50%, and less than 70%. 4: Growth inhibition effect is equal to or greater than 70%, and less than 90%. 5: Growth inhibition effect is equal to or greater than 90%, or complete withering is achieved. ECHDG=Echinochloa crus-galli (L.) P. Beauv. var. formosensis Ohwi, MONVA=Monochoria vaginalis, SCIJU=Scirpus juncoides, CYMIC=Cyperus microiria.

[2] = tested on: Echinochloa crus-galli (L.) P. Beauv. var. formosensis Ohwi; experiment: Test for Herbicidal Effect in Flooding Treatment (#1), ECHDG; conditions: flooding treatment at seeding, dose 2 kg/ha, visual observation on day 21
How it was run: (§1)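 Flooded soil in cups was seeded 24 h after flooding, then treated with compound in acetone diluted with Tween 80-containing water, dropped onto the water surface at 2 kg/ha. After growth in a glasshouse, growth inhibition was scored visually on day 21 on a 0 (<10%) to 5 (≥90% or complete withering) scale.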

[3] = tested on: Echinochloa crus-galli (L.) P. Beauv. var. formosensis Ohwi; experiment: Test for Herbicidal Effect in Flooding Treatment (#2), ECHDG at 2-2.5 leaf stage; conditions: flooding treatment at 2-2.5 leaf stage, dose 0.2 kg/ha, visual observation on day 21
How it was run: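 Scoring is a visual 0–5 scale of growth inhibition (0 below 10%, 5 at 90% or more or full withering), taken 21 days after treatment in a glasshouse. Dose was 0.2 kg/ha, applied as acetone/Tween 80 aqueous solution onto flooded soil once seedlings reached the 2–2.5 leaf stage.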

[4] = tested on: Scirpus juncoides; experiment: Test for Herbicidal Effect in Flooding Treatment (#1), SCIJU; conditions: flooding treatment at seeding, dose 2 kg/ha, visual observation on day 21
How it was run: as §1

| SMILES | CYMIC #1 herbicidal effect (growth inhibition grade) [1] | ECHDG #1 herbicidal effect (growth inhibition grade) [2] | ECHDG (2-2.5L) #2 herbicidal effect (growth inhibition grade) [3] | SCIJU #1 herbicidal effect (growth inhibition grade) [4] |
| --- | --- | --- | --- | --- |
| O=S(=O)(Cc1ccc(OC(F)(F)C(F)F)cc1)c1ncc(Cl)s1 [Compound 1C-116] | 5 (Growth inhibition effect is equal to or greater than 90%, or complete withering is achieved) | 5 (Growth inhibition effect is equal to or greater than 90%, or complete withering is achieved) | 3 (Growth inhibition effect equal to or greater than 50%, and less than 70%) | 5 (Growth inhibition effect is equal to or greater than 90%, or complete withering is achieved) |
| CCOc1cc(C)ccc1CS(=O)(=O)c1ncc(Cl)s1 [Compound 1C-13] | 5 (Growth inhibition effect is equal to or greater than 90%, or complete withering is achieved) | 5 (Growth inhibition effect is equal to or greater than 90%, or complete withering is achieved) | 5 (Growth inhibition effect is equal to or greater than 90%, or complete withering is achieved) | 5 (Growth inhibition effect is equal to or greater than 90%, or complete withering is achieved) |
| CCOc1c(Cl)cccc1CS(=O)(=O)c1ncc(Cl)s1 [Compound 1C-10] | 5 (Growth inhibition effect is equal to or greater than 90%, or complete withering is achieved) | 5 (Growth inhibition effect is equal to or greater than 90%, or complete withering is achieved) | 5 (Growth inhibition effect is equal to or greater than 90%, or complete withering is achieved) | 5 (Growth inhibition effect is equal to or greater than 90%, or complete withering is achieved) |
| COc1ccc(CS(=O)(=O)c2ncc(Cl)s2)cc1Cl [Compound 1C-89] | 5 (Growth inhibition effect is equal to or greater than 90%, or complete withering is achieved) | 5 (Growth inhibition effect is equal to or greater than 90%, or complete withering is achieved) | 3 (Growth inhibition effect equal to or greater than 50%, and less than 70%) | 5 (Growth inhibition effect is equal to or greater than 90%, or complete withering is achieved) |
| O=S(=O)(Cc1ccc(OC(F)F)cc1)c1ncc(Cl)s1 [Compound 1C-114] | 5 (Growth inhibition effect is equal to or greater than 90%, or complete withering is achieved) | 5 (Growth inhibition effect is equal to or greater than 90%, or complete withering is achieved) | 1 (Growth inhibition effect is equal to or greater than 10%, and less than 30%) | 5 (Growth inhibition effect is equal to or greater than 90%, or complete withering is achieved) |
| O=S(=O)(Cc1cccc(OC(F)F)c1)c1ncc(Cl)s1 [Compound 1C-84] | 5 (Growth inhibition effect is equal to or greater than 90%, or complete withering is achieved) | 5 (Growth inhibition effect is equal to or greater than 90%, or complete withering is achieved) | 3 (Growth inhibition effect equal to or greater than 50%, and less than 70%) | 5 (Growth inhibition effect is equal to or greater than 90%, or complete withering is achieved) |
| COc1cc(CS(=O)(=O)c2ncc(Cl)s2)cc(OC)c1OC [Compound 1C-128] | 5 (Growth inhibition effect is equal to or greater than 90%, or complete withering is achieved) | 5 (Growth inhibition effect is equal to or greater than 90%, or complete withering is achieved) | 1 (Growth inhibition effect is equal to or greater than 10%, and less than 30%) | 4 (Growth inhibition effect is equal to or greater than 70%, and less than 90%) |
